Reference: EP4585216A1, “HETEROCYCLIC COMPOUNDS FOR THE TREATMENT OF FATTY LIVER DISEASE” (ScandiEdge Therapeutics AB, priority 2024, dated 2025)

Experiments:
[1] = target: T1, pyruvate kinase liver (PKL) (Homo sapiens, UniProt P30613); test: Pyruvate kinase activity in HepG2 PKM2 CRISPR KO protein lysate; assay type: biochemical; details: for inhibition at 10 µM / reduction in PK activity of HepG2 KO protein lysate: compared to the control (DMSO); for inhibition at 10 µM: read-out: reduction in PK activity of HepG2 KO protein lysate; for PK activity of HepG2 KO protein lysate (in words) / reduction in PK activity of HepG2 KO protein lysate: 10 µM; for PK activity of HepG2 KO protein lysate (in words): batches 4 and 5
T1 construct: endogenous in cells; host or cells: HepG2 PKM2 CRISPR KO (HepG2 KO) cells; lysate in CelLytic M or treated whole cells
T1 sequence (P30613 1-543 isoform P30613-2): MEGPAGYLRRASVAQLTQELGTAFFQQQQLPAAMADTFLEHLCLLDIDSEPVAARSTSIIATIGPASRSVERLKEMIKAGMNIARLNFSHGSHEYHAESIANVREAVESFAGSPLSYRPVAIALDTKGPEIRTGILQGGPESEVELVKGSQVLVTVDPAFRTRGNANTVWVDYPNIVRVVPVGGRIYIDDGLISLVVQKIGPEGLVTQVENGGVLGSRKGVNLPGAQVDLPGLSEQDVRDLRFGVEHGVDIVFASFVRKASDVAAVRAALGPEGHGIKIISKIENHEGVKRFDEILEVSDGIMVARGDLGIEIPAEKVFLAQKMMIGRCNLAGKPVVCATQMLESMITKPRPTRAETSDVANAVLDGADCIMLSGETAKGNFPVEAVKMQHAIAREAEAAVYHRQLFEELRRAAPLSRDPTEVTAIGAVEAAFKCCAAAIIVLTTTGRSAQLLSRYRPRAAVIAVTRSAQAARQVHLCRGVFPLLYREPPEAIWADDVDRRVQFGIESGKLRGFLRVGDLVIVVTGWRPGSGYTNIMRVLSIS
Method: (§1) HepG2 WT and HepG2 KO cells were lysed, and protein lysate was prepared with CelLytic M (C2978, Sigma-Aldrich) lysis buffer. Protein lysate was treated with 10 µM of the drugs and the pyruvate kinase activity on protein lysate was measured using Pyruvate Kinase Assay Kit (ab83432, abeam) following manufacturer's instruction. 2×10^4 HepG2 WT cells and 1×10^5 HepG2 KO cells were seeded into a 96-well plate for measuring pyruvate kinase activity in the cells. The cells were treated with 10-20µM of drugs for 4h and washed with 250µl PBS. Cells were lysed with 50 µl PK assay buffer (ab83432, abcam) and start reaction and kinetic O.D measurement was performed on 50µl PK assay buffer containing the assay component (ab83432, abcam). O.D values were measured with microplate reader (Hidex Sense Beta Plus) at 570nm wavelength. DMSO was used as control.
(§2) The effect of the target compounds was studied on liver cell line HepG2. HepG2 expresses two different pyruvate kinases (PK), pyruvate kinase muscle (PKM2) and pyruvate kinase liver (PKL). While most cells express PKM, liver cells further express PKL. […] In addition to HepG2 KO cell, HepG2 wild-type (HepG2 WT) cells were also used.

[2] = tested on: pyruvate kinase (PK); test: Pyruvate kinase activity in HepG2 WT protein lysate; assay type: biochemical; details: 10 µM; for PK activity of HepG2 WT protein lysate (in words): batches 4 and 5; for reduction in PK activity of HepG2 WT protein lysate: compared to the control (DMSO)
Method: as §1, §2

[3] = tested on: HepG2 cells; test: TAG measurement in DNL steatosis model; assay type: cell-based; details: for TAG content (in words) / reduction in TAG/MTT ratio: 10 µM for 1 week; for reduction in TAG/MTT ratio: compared to the control (DMSO)
Method: HepG2 wild type cells were purchased from genome engineering company Synthego. Cells were maintained with growth media RPMI 1640 (R2405, Sigma-Aldrich) and supplemented with 10 % fetal bovine serum (FBS, F7524, Sigma-Aldrich), 1 % penicillin-streptomycin (P/S media, P4333, Sigma-Aldrich). Steatosis induction media was prepared as DMEM high glucose (D0819, Sigma-Aldrich) with 10% FBS, 1% P/S media supplemented with 10µg/ml insulin (I9278, Sigma-Aldrich), and 10µM T0901317 (T2320, Sigma-Aldrich) for one week. HepG2 cells were seeded 6×10^4 cells per well into a 96-well plate for TAG and MTT assay after steatosis and 1×10^6 cells per well into 6-well plate for western blot analysis after steatosis. HepG2 cells were incubated with steatosis induce media (SM) for one week by 3 day + 2 day + 2 day with total three times media exchange.
HepG2 cells were seeded at 6×10^4 cells per well into 96-well plate and induced steatosis for one week with designated concentration of small molecules (this will be referred to as a DNL steatosis model). After steatosis induction, cells were washed with 200 µl of PBS and triglyceride contents was measured by Triglyceride Assay Kit - Quantification (ab65336, Abeam) following manufacturer's instruction. Optical density (O.D) values were detected with microplate reader at 570 nm (Hidex Sense Beta Plus).
5 mg/ml MTT (M2128, Sigma-Aldrich) solution in PBS (10 µL) was added to each well for MTT assay. After 1 hr, MTT solution and all media were removed from the wells. 100 µl of DMSO was added and mixed to dissolve the formazan crystals. Cell viability was analysed by measuring the absorbance of the dissolved formazan in a microplate reader at a wavelength of 570 nm with microplate reader (Hidex Sense Beta Plus). DMSO was used as control.

[4] = tested on: pyruvate kinase (PK); test: Pyruvate kinase activity in treated HepG2 WT cells; assay type: cell-based; details: 10 µM for 4 h; for effect on PK activity in HepG2 WT cells (in words): compared to the control
Method: as §1, §2

[5] = target: T1, pyruvate kinase liver (PKL); test: Pyruvate kinase activity in treated HepG2 PKM2 CRISPR KO cells; assay type: cell-based; details: 10 µM for 4 h; for effect on PK activity in HepG2 KO cells (in words): compared to the control
Method: as §1, §2

COc1cc(Br)c(S(=O)(=O)NCc2cn(CC(=O)c3ccccc3)nn2)cc1OC [SET-27A, 2-bromo-4,5-dimethoxy-N-((1-(2-xox-2-phenylethyl)-1H-1,2,3-triazol-4-yl)methyl) benzenesulfonamide]
inhibition at 10 µM [1]: 4.3%

O=S(=O)(NCc1ccc(F)cc1)c1cc(O)c(O)cc1-c1cccc(O)c1 [SET-68B, N-(4-fluorobenzyl)-3',4,5-trihydroxy-[1,1'-biphenyl]-2-sulfonamide]
PK activity of HepG2 KO protein lysate (in words) [1]: reduced the PK activity | PK activity of HepG2 WT protein lysate (in words) [2]: reduced the PK activity

O=S1(=O)c2cc(O)c(O)cc2-c2ccc(C(F)(F)F)cc2N1Cc1ccc(F)cc1 [SET-59, 6-(4-fluorobenzyl)-2,2-dihydroxy-8-(trifluoromethyl)-6H-dibenzo[c,e][1,2]thiazine 5,5-dioxide]
reduction in PK activity of HepG2 KO protein lysate [1]: 11.1% | reduction in PK activity of HepG2 WT protein lysate [2]: 13.3% | TAG content (in words) [3]: reduced TAG content

O=S(=O)(NCc1ccccc1)c1cc(O)c(O)cc1-c1ccc(C(F)(F)F)cc1 [SET-60, N-benzyl-4,5-dihydroxy-4'-(trifluoromethyl)-[1,1'-biphenyl]-2-sulfonamide]
inhibition at 10 µM [1]: 17.2% | TAG content (in words) [3]: reduced TAG content | reduction in TAG/MTT ratio [3]: 16.3%

O=S(=O)(NCc1ccccc1)c1cc(O)c(O)cc1-c1ccc(O)c(O)c1 [SET-15, N-benzyl-3',4,4',5-tetrahydroxy-[1,1'-biphenyl]-2-sulfonamide]
inhibition at 10 µM [1]: 59.1% | reduction in PK activity of HepG2 WT protein lysate [2]: 25.4% | reduction in TAG/MTT ratio [3]: 26.8%

O=S1(=O)c2cc(O)c(O)cc2-c2cc(O)ccc2N1Cc1ccccc1 [SET-69D, 6-benzyl-2,3,9-trihydroxy-6H-dibenzo[c,e][1,2]thiazine 5,5-dioxide]
PK activity of HepG2 KO protein lysate (in words) [1]: reduced the PK activity | PK activity of HepG2 WT protein lysate (in words) [2]: reduced the PK activity

O=S(=O)(NCc1ccccc1)c1cc(O)c(O)cc1-c1cccc(O)c1 [SET-69B, N-benzyl-3',4,5-trihydroxy-[1,1'-biphenyl]-2-sulfonamide]
PK activity of HepG2 KO protein lysate (in words) [1]: reduced the PK activity | PK activity of HepG2 WT protein lysate (in words) [2]: reduced the PK activity

COc1cc(Br)c(S(=O)(=O)NCc2cn(Cc3ccccc3)nn2)cc1OC [SET-35A, N-((1-benzyl-1H-1,2,3-triazol-4-yl)methyl)-2-bromo-4,5-dimethoxybenzenesulfonamide]
inhibition at 10 µM [1]: 4.4%

O=S1(=O)c2cc(O)c(O)cc2-c2cc(O)ccc2N1Cc1ccc(F)cc1 [SET-68D, 6-(4-fluorobenzyl)-2,3,9-trihydroxy-6H-dibenzo[c,e][1,2]thiazine 5,5-dioxide]
PK activity of HepG2 WT protein lysate (in words) [2]: highest inhibitory effect

O=S(=O)(NCc1ccc(F)cc1)c1cc(O)c(O)cc1-c1ccc(C(F)(F)F)cc1 [SET-57, N-(4-fluorobenzyl)-4,5-dihydroxy-4'-(trifluoromethyl)-[1,1'-biphenyl]-2-sulfonamide]
inhibition at 10 µM [1]: 35.2% | reduction in PK activity of HepG2 WT protein lysate [2]: 10.7% | TAG content (in words) [3]: reduced TAG content | reduction in TAG/MTT ratio [3]: 15.6%

COc1cc(-c2ccc(C(F)(F)F)cc2)c(S(=O)(=O)NCc2ccccc2)cc1OC [SET-26, N-benzyl-4,5-dimethoxy-4'-(trifluoromethyl)-[1,1'-biphenyl]-2-sulfonamide]
inhibition at 10 µM [1]: 8%

COc1cc2c(cc1OC)S(=O)(=O)N(Cc1ccc(F)cc1)c1cc(C(F)(F)F)ccc1-2 [SET-58, 6-(4-fluorobenzyl)-2,3-dimethoxy-8-(trifluoromethyl)-6H-dibenzo[c,e][1,2]thiazine 5,5-dioxide]
inhibition at 10 µM [1]: 32.4% | reduction in PK activity of HepG2 WT protein lysate [2]: 33.8% | TAG content (in words) [3]: reduced TAG content

COc1cc2c(cc1OC)S(=O)(=O)N(Cc1ccccc1)c1cc(C(F)(F)F)ccc1-2 [SET-61, 6-benzyl-2,2-dimethoxy-8-(trifluoromethyl)-6H-dibenzo[c,e][1,2]thiazine 5,5-dioxide]
reduction in PK activity of HepG2 KO protein lysate [1]: 8.8% | reduction in PK activity of HepG2 WT protein lysate [2]: 11.7%

Cn1c2cc([S+](C)[O-])sc2c2cnn(Cc3cccc(N)c3)c(=O)c21 (stereo not shown) [TEPP46, reference compound]
effect on PK activity in HepG2 WT cells (in words) [4]: increased activity

O=S(=O)(NCc1ccc(F)cc1)c1cc(O)c(O)cc1-c1ccc(O)cc1 [SET-66B, N-(4-fluorobenzyl)-4,4',5-trihydroxy-[1,1'-biphenyl]-2-sulfonamide]
PK activity of HepG2 KO protein lysate (in words) [1]: reduced the PK activity | PK activity of HepG2 WT protein lysate (in words) [2]: reduced the PK activity | increase of the TAG/MTT ratio ([3]; 5 µM for 1 week): 6.0%

COc1ccc(CN2c3cc(OC)c(OC)cc3-c3cc(OC)c(OC)cc3S2(=O)=O)cc1 [SET-18, 2,3,8,9-tetramethoxy-6-(4-methoxybenzyl)-6H-dibenzo[c,e][1,2] thiazine 5,5-dioxide]
inhibition at 10 µM ([5]; HepG2, read-out: inhibition of PK activity in HepG2 KO cells): 7.5% | inhibition of PK activity in HepG2 WT cells [4]: 6.2%

O=S(=O)(NCc1ccc(F)cc1)c1cc(O)c(O)cc1-c1ccc(O)c(O)c1 [SET-13, N-(4-fluorobenzyl)-3',4,4',5-tetrahydroxy-[1,1'-biphenyl]-2-sulfonamide]
inhibition at 10 µM [1]: 70.2% | reduction in PK activity of HepG2 WT protein lysate [2]: 15.8% | reduction in TAG/MTT ratio [3]: 21.9%

O=S1(=O)Nc2cc(O)c(O)cc2-c2cc(O)c(O)cc21 [SET-10, 2,3,8,9-tetrahydroxy-6H-dibenzo[c,e][1,2]thiazine 5,5-dioxidee]
inhibition at 10 µM [1]: 29.4% | reduction in PK activity of HepG2 WT protein lysate [2]: 28.7% | effect on PK activity in HepG2 KO cells (in words) [5]: did not affect the PK activity | effect on PK activity in HepG2 WT cells (in words) [4]: did not affect the PK activity

O=S1(=O)c2cc(O)c(O)cc2-c2cc(O)c(O)cc2N1Cc1ccccc1 [SET-09, 6-benzyl-2,3,8,9-tetrahydroxy-6H-dibenzo[c,e][1,2]thiazine 5,5-dioxide]
inhibition at 10 µM [1]: 70.2% | reduction in PK activity of HepG2 WT protein lysate [2]: 42.6% | reduction in TAG/MTT ratio [3]: 21.3%

COc1cc2c(cc1OC)N(Cc1ccccc1)S(=O)(=O)c1cc(OC)c(OC)cc1-2 [SET-08, 6-benzyl-2,3,8,9-tetramethoxy-6H-dibenzo[c,e][1,2]thiazine 5,5-dioxide]
effect on PK activity in HepG2 KO cells (in words) [5]: did not affect the PK activity | effect on PK activity in HepG2 WT cells (in words) [4]: did not affect the PK activity
